This is an account of results in paper PMC6759624, “Unraveling Heparan Sulfate Proteoglycan Binding Motif for Cancer Cell Selectivity” (Frontiers in Oncology, 2019).

“Also recorded” adds a separate entry of the source.

For test [1] the following is noted: ref [13], [19] (b5); cited from earlier work. The source says:
NT4 peptides can be conjugated with different functional units and can selectively deliver drugs for cancer therapy or transport tracers for tumor imaging ([11], [12], [15]–[18]). […] NT4 transports the chemotherapeutic moiety to the cancer cell membrane and, ultimately, into the cell ([14]–[16]).

The next test deals with cancer cells. To be noted: ref [20]; cited from earlier work. An excerpt:
NT4 is already known to have major effects on cancer cells, such as inhibition of migration and invasion of ECM induced by FGF ([20]).

The test system of a further test is glypican-4. As to the kind of experiment: SPR, NT4 binding to recombinant glypican-4. Set-up: species or system human. To be noted: rHSPG over immobilized NT4. How it is done: (§1) Experiments were performed on a Biacore T100 instrument (GE Healthcare). All materials were purchased from GE Healthcare unless otherwise specified. Full-length recombinant human HSPG were purchased from R&D Systems. Syndecan-3, syndecan-4, and glypican-3 were obtained from the mouse myeloma cell line (NS0), and glypican-4 was obtained from the Chinese Hamster Ovary cell line. The activity of syndecan-4, glypican-3, and glypican-4 was measured by the supplier as the ability of the immobilized protein to bind FGF-basic. The activity of syndecan-3 was measured by the supplier as the ability of the immobilized protein to inhibit adhesion of Saos-2 human osteosarcoma cells to human fibronectin.
(§2) NT4-biotin was captured on a CM5 sensor chip where streptavidin had previously been immobilized by standard amine coupling. Briefly, the sensor chip surface was activated with a mixture of 0.1 M 1-ethyl-3(3-dimethylaminopropyl)-carbodiimide (EDC) and 0.4 M N-hydroxyl succinimide (NHS) for 7 min at a flow rate of 5 μl/min. Streptavidin was injected over the surface for 7 min, and finally, 1 M ethanolamine pH 8.5 was used to block any activated carboxyl groups. […]
(§3) Kinetics were analyzed with the Biacore T100 evaluation 1.1.1 software using the 1:1 Langmuir model to fit the curves.
Background: SPR reads the build-up and loss of mass on a sensor chip optically.

In a further test the test system is syndecan-3. Nature of the test: SPR, NT4 binding to recombinant syndecan-3. Set-up: species or system human. To be noted: rHSPG 25 μg/mL over immobilized NT4. How it is done:
as §1, §2, §3

Test [2] relates to HT-29, PANC-1, MCF-7, and MDA-MB-231 cells. As to the kind of experiment: NT4 cell binding versus sulfatase expression in cell panel. Format: cell-based, human. To be noted: SULF-1 and SULF-2 expression (RT-PCR; SULF-1 also Western blot) versus flow cytometry binding. The procedure: PANC-1 human pancreas adenocarcinoma, HT-29 human colon adenocarcinoma, and MCF-7 and MDA-MB-231 human breast adenocarcinoma cells were grown in the recommended American Type Culture Collection (ATCC) media, supplemented with 10% fetal calf serum, 200 μg/ml glutamine, 100 μg/ml streptomycin, 60 μg/ml penicillin, and maintained at 37°C, 5% CO2. Cell lines were purchased from ATCC, and cell profiling was analyzed to authenticate human cell lines (BMR Genomics). All experiments were performed using 2 × 10^5 cells in 96-well U-bottom plates. All dilutions were performed in phosphate-buffered saline (PBS), containing 5 mM EDTA and 1% bovine serum albumin (BSA). […] P values were calculated using a two-tailed Student t-test and GraphPad Prism 5.0 software. […] RNA was quantified by spectrophotometry at 260 and 280 nm and verified by agarose gel electrophoresis. The same quantity of RNA for every cell line was loaded on the gel. […] Signals were detected using Image LAS4010 (GE Healthcare). […] P values were calculated using a one-tailed Student t-test and GraphPad Prism 5.0 software. […] Signals were detected using Image LAS4010 (GE Healthcare). […] P values were calculated using a parametric, unpaired Student t-test, and GraphPad Prism 5.0 software.
On the technique in general: In western blotting, separated proteins are transferred to a membrane and probed.

A further test relates to glypican-3. Nature of the test: SPR, NT4 binding to recombinant glypican-3. Set-up: species or system human. To be noted: rHSPG over immobilized NT4. How it is done: as §1, §2, §3

For the substance (pyELYENKPRRPYIL)4K2K-beta-Ala [NT4], in test [1], the “binding to heparan sulfate” value is “preferential high-affinity binding” and the binding to heparin result is listed as “preferential high-affinity binding”. Also, the “effect on migration and invasion of ECM induced by FGF” value in the test on cancer cells was “inhibition”. Moreover, the “binding to glypican-4” value in the test with glypican-4 is recorded as “bound; also recorded: binds”. The “binding to syndecan-3” value with syndecan-3 is given as “does not bind; also recorded: did not bind”. Also, the “correlation of NT4 binding with sulfatase expression” value in test [2] was “inversely correlated with sulfatase expression; also recorded: inversely correlated with expression of sulfatases”. Besides, the “binding to glypican-3” value with glypican-3 is “bound; also recorded: binds”.
